Experimental findings from patent US10059713B2 (Takeda Pharmaceutical Company Limited, priority 2014, dated 2018) are described below.

Usually EC50 stands for the concentration needed to bring the measured effect to its halfway point. A lower EC50 goes with higher potency in that assay.

Sequence of human GPR43 (O15552 whole entry): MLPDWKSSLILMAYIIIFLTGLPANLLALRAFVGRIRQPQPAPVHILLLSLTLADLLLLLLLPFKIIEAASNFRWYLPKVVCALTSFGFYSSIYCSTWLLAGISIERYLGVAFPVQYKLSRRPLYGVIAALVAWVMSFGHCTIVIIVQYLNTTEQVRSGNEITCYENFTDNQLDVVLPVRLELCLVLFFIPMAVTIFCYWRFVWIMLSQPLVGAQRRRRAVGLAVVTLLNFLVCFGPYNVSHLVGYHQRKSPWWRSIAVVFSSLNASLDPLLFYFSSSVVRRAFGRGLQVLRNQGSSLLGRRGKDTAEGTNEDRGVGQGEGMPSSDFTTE

The assay addresses human GPR43 (Homo sapiens (Human), UniProt O15552). Nature of the assay: Ca-Flux functional assay: determination of agonist/positive allosteric modulator (PAM) activity. It is filed as cell-based. Conditions: CHO-K1 Gα16 cells stably expressing human GPR43; compound added with EC20 sodium acetate; intracellular Ca2+ by FLIPR; does not distinguish agonist from PAM. Here is the method:
Ca-Flux Functional Assay: Determination of Agonist/Positive Allosteric Modulator (PAM) Activity
GPR43 agonist/PAM activity was determined by measuring changes in intracellular calcium levels using a Ca^2+ sensitive fluorescent dye. The changes in fluorescent signal were monitored by FLIPR (manufactured by Molecular Devices). GPR43 mediated increases in intracellular Ca^2+ concentration were readily detected upon activation with sodium acetate. Prior to the assay (24 hours), CHO-K1 Gα16 cells stably expressing human GPR43 were-seeded in cell culture medium in black, clear-bottom 384-well plates (Corning Inc) and grown overnight at 37° C., 5% CO2. On the day of the assay, cell culture media was removed and cells were loaded with Calcium 5 Dye (Molecular Devices) diluted in HBSS containing 25 mM HEPES, 2.5 mM Probenecid, 0.1% BSA for 1 hour at 37° C., 5% CO2. 10 point half log concentration response curves of sodium acetate from 10 mM were conducted prior to the testing of compounds to calculate the sodium acetate concentration that produces 20% of the maximal response (EC20). Test compounds (at 10 point half log concentration response curves from 10 μM) were added in the presence of sodium acetate to achieve a final concentration that produces approximately 20% maximal response as calculated from the previous experiment. The changes in fluorescent signal were monitored by FLIPR upon addition of the compound/EC20 sodium acetate mix. The EC50 values were determined from ten point concentration response curves. Curves were generated using the average of two wells for each data point.
The above assay detects both GPR43 receptor agonists and positive allosteric modulators of the GPR43 receptor, without distinguishing between the two. Activity in either regard is useful in the treatment of conditions associated with GPR43 receptor activity.
In the case of `COc1ccc(S(=O)(=O)c2c(N)[nH]c3c(N4CCOC(C)(C)C4)nc(C)nc23)cc1` [Example 204, 4-(2,2-dimethylmorpholin-4-yl)-7-(4-methoxybenzenesulfonyl)-2-methyl-5H-pyrrolo[3,2-d]pyrimidin-6-amine], the response was half-maximal at 15 nM (EC50).
The compound `CN(c1ncnc2c(S(=O)(=O)c3ccccc3)c(N)[nH]c12)C1CCOC(C)(C)C1` (centres unmarked) [Example 189, 7-(benzenesulfonyl)-4-N-(2,2-dimethyloxan-4-yl)-4-N-methyl-5H-pyrrolo[3,2-d]pyrimidine-4,6-diamine] returned an EC50 of 1970 nM.
The value for `CC1CC1COc1ncnc2c(S(=O)(=O)c3ccccc3)c(N)[nH]c12` (centres unmarked) [Example 172, 7-(benzenesulfonyl)-4-[(2-methylcyclopropyl)methoxy]-5H-pyrrolo[3,2-d]pyrimidin-6-amine] was 78 nM; that for `Nc1[nH]c2c(NCC3CC3)ncnc2c1S(=O)(=O)c1ccccc1` [Example 70, 7-(benzenesulfonyl)-4-N-(cyclopropylmethyl)-5H-pyrrolo[3,2-d]pyrimidine-4,6-diamine] was 763 nM; that for `COc1ccccc1CN(C)c1ncnc2c(S(=O)(=O)c3ccccc3)c(N)[nH]c12` [Example 92, 7-(benzenesulfonyl)-4-N-[(2-methoxyphenyl)methyl]-4-N-methyl-5H-pyrrolo[3,2-d]pyrimidine-4,6-diamine] was 209 nM.
The value for `CC1CN(c2ncnc3c(S(=O)(=O)c4cccnc4)c(N)[nH]c23)CCO1` (centres unmarked) [Example 122, 4-(2-methylmorpholin-4-yl)-7-(pyridine-3-sulfonyl)-5H-pyrrolo[3,2-d]pyrimidin-6-amine] was 625 nM.
The value for `Cc1nc(N2CCOC(C)(C)C2)c2[nH]c(N)c(S(=O)(=O)c3ccc(Cl)cc3F)c2n1` [Example 279, 7-(4-chloro-2-fluorobenzenesulfonyl)-4-(2,2-dimethylmorpholin-4-yl)-2-methyl-5H-pyrrolo[3,2-d]pyrimidin-6-amine] was 4 nM; that for `COc1ccc(S(=O)(=O)c2c(N)[nH]c3c(C4=CCCCC4)ncnc23)cn1` [Example 43, 4-(cyclohex-1-en-1-yl)-7-(6-methoxypyridine-3-sulfonyl)-5H-pyrrolo[3,2-d]pyrimidin-6-amine] was 78 nM; that for `Cc1nc(OC2CCOC(C)(C)C2)c2[nH]c(N)c(S(=O)(=O)c3ccccc3F)c2n1` (centres unmarked) [Example 273, -[(2,2-dimethyloxan-4-yl)oxy]-7-(2-fluorobenzenesulfonyl)-2-methyl-5H-pyrrolo[3,2-d]pyrimidin-6-amine] was 63 nM.
`C[C@@H]1CN(c2ncnc3c(S(=O)(=O)c4ccccc4)c(N)[nH]c23)C[C@@H](C)O1` [Example 87, 7-(benzenesulfonyl)-4-[(2R,6R)-2,6-dimethylmorpholin-4-yl]-5H-pyrrolo[3,2-d]pyrimidin-6-amine]: a half-maximal response (EC50) required 34 nM. This EC50 lies about 1.9-fold lower than the previous one.
The value for `Cc1nc(N2CCOC(C)(C)C2)c2[nH]c(N)c(S(=O)(=O)c3c(F)cccc3F)c2n1` [Example 287, 7-(2,6-difluorobenzenesulfonyl)-4-(2,2-dimethylmorpholin-4-yl)-2-methyl-5H-pyrrolo[3,2-d]pyrimidin-6-amine] was 9 nM.
`COc1ccc(F)c(S(=O)(=O)c2c(N)[nH]c3c(N4CCOC(C)C4)nc(C)nc23)c1` (centres unmarked) [Example 267, 7-(2-fluoro-5-methoxybenzenesulfonyl)-2-methyl-4-(2-methylmorpholin-4-yl)-5H-pyrrolo[3,2-d]pyrimidin-6-amine] registered an EC50 of 4 nM.
`COc1ccc(S(=O)(=O)c2c(N)[nH]c3c(N4CCC(F)(F)CC4)ncnc23)cc1` [Example 68, 4-(4,4-difluoropiperidin-1-yl)-7-(4-methoxybenzenesulfonyl)-5H-pyrrolo[3,2-d]pyrimidin-6-amine] came in with a 50% effective concentration (EC50) of 32 nM.
The value for `Nc1[nH]c2c(OCC3CCCCC3)ncnc2c1S(=O)(=O)c1ccccc1` [Example 165, 7-(benzenesulfonyl)-4-(cyclohexylmethoxy)-5H-pyrrolo[3,2-d]pyrimidin-6-amine] was 73 nM; that for `Nc1[nH]c2c(N(CC3CC3)CC3CCCO3)ncnc2c1S(=O)(=O)c1ccccc1` (centres unmarked) [Example 63, 7-(benzenesulfonyl)-4-N-(cyclopropylmethyl)-4-N-(oxolan-2-ylmethyl)-5H-pyrrolo[3,2-d]pyrimidine-4,6-diamine] was 125 nM; that for `Cc1cccc(-c2ncnc3c(S(=O)(=O)c4ccccc4)c(N)[nH]c23)c1` [Example 57, 7-(benzenesulfonyl)-4-(3-methylphenyl)-5H-pyrrolo[3,2-d]pyrimidin-6-amine] was 15 nM.
The value for `CC1CN(c2ncnc3c(S(=O)(=O)c4ccc(Cl)c(F)c4)c(N)[nH]c23)CCO1` (centres unmarked) [Example 143, 7-(4-chloro-3-fluorobenzenesulfonyl)-4-(2-methylmorpholin-4-yl)-5H-pyrrolo[3,2-d]pyrimidin-6-amine] was 35 nM.
The value for `CC1CN(c2ncnc3c(S(=O)(=O)c4ccccc4)c(N)[nH]c23)CCS1` (centres unmarked) [Example 195, 7-(benzenesulfonyl)-4-(2-methylthiomorpholin-4-yl)-5H-pyrrolo[3,2-d]pyrimidin-6-amine] was 8 nM; that for `CCN(C)c1ncnc2c(S(=O)(=O)c3ccccc3)c(N)[nH]c12` [Example 97, 7-(benzenesulfonyl)-4-N-ethyl-4-N-methyl-5H-pyrrolo[3,2-d]pyrimidine-4,6-diamine] was 447 nM; that for `COc1cc(F)ccc1S(=O)(=O)c1c(N)[nH]c2c(N3CCOC(C)C3)ncnc12` (centres unmarked) [Example 222, 7-(4-fluoro-2-methoxybenzenesulfonyl)-4-(2-methylmorpholin-4-yl)-5H-pyrrolo[3,2-d]pyrimidin-6-amine] was 4040 nM.
`Nc1[nH]c2c(C3CCCCC3)ncnc2c1S(=O)(=O)c1ccccc1` [Example 3, 7-(benzenesulfonyl)-4-cyclohexyl-5H-pyrrolo[3,2-d]pyrimidin-6-amine] returned a 50% effective concentration (EC50) of 43 nM.
The value for `Cc1nc(N2C[C@H](C)OC[C@@H]2C)c2[nH]c(N)c(S(=O)(=O)c3ccccc3F)c2n1` [Example 223, 4-[(2S,5S)-2,5-dimethylmorpholin-4-yl]-7-(2-fluorobenzenesulfonyl)-2-methyl-5H-pyrrolo[3,2-d]pyrimidin-6-amine] was 7 nM.
The value for `Cc1nc(OCC2CCC2)c2[nH]c(N)c(S(=O)(=O)c3ccccc3)c2n1` [Example 249, 7-(benzenesulfonyl)-4-(cyclobutylmethoxy)-2-methyl-5H-pyrrolo[3,2-d]pyrimidin-6-amine] was 31 nM; that for `Cc1nc(N2CCCC(C)C2)c2[nH]c(N)c(S(=O)(=O)c3ccccc3)c2n1` (centres unmarked) [Example 110, 7-(benzenesulfonyl)-2-methyl-4-(3-methylpiperidin-1-yl)-5H-pyrrolo[3,2-d]pyrimidin-6-amine] was 32 nM.
Take `CN(Cc1ccccn1)c1ncnc2c(S(=O)(=O)c3ccccc3)c(N)[nH]c12` [Example 95, 7-(benzenesulfonyl)-4-N-methyl-4-N-(pyridin-2-ylmethyl)-5H-pyrrolo[3,2-d]pyrimidine-4,6-diamine]: the EC50 came out at 7130 nM.
For the compound `Nc1[nH]c2c(C3CCCCC3)ncnc2c1S(=O)(=O)c1ccccc1F` [Example 89, 4-cyclohexyl-7-(2-fluorobenzenesulfonyl)-5H-pyrrolo[3,2-d]pyrimidin-6-amine], the midpoint of the response, the EC50, lay at 11 nM.
